Measurements taken from patent publication US5817692A, “Endoperoxides useful as antiparasitic agents” (priority 1996, dated 1998).

These molecules were tested on P. falciparum NF54 (assay: antimalarial activity, P. falciparum NF54 parasites in vitro). Settings: Plasmodium falciparum, NF54, read-out: Antimalarial Activity IC50.
Assay type: cell-based
Protocol: (§1) The protozoan Plasmodium falciparum is a causative agent of malaria, the single most critical infectious disease of mankind. The antimalarial activity of the endoperoxides was determined according to the method of Desjardins et al. (16) as modified by Milhous et al. (17). Briefly, the antimalarial activity of the endoperoxides was tested in a tritiated-hypoxanthine incorporation assay by determining the concentration of the test compound needed to inhibit 50% of the replication of Plasmodium falciparum (IC50) in human red blood cells.
Tables 4 and 5 show the structures and antimalarial activities of unsaturated and saturated bicyclic [2.2.2] endoperoxides of the invention. Compounds of this formula wherein R and R' are identical are particularly preferred. It is expected that compounds wherein R and R' are selected from the groups [drawing 33] will be especially useful. […]

Row | SMILES | IC50 [nM]
1 | CC(C)(C)[Si](C)(C)Oc1ccc(C23CCCC(c4ccccc4)(CC2)OO3)cc1 (centres unmarked) [Table 6, R = OSiMe2 Bu-t] | 290
2 | CC(C)(C)[Si](C)(C)OCc1ccc(C23CCCC(c4ccccc4)(CC2)OO3)cc1 (centres unmarked) [Table 6, R = CH2 OSiMe2 Bu-t] | 99

Same assay, conditions: Plasmodium falciparum; P. falciparum NF54 parasites in vitro; read-out: Antimalarial Activity IC50

Row | SMILES | IC50 [nM]
3 | c1ccc(C23CCC(c4ccccc4)(CC2)OO3)cc1 [Table 5, R = H] | 210
4 | c1ccc(C23CCCC(c4ccccc4)(CC2)OO3)cc1 [Ar = Ph, X = CH2] | 89
5 | Fc1ccc(C23CCC(c4ccc(F)cc4)(CC2)OO3)cc1 [Table 5, R = F] | 63
6 | Cc1ccc(C23C=CC(c4ccc(C)cc4)(CC2)OO3)cc1 [R = Me, R' = Me] | 140
7 | Fc1ccc(C23CCCC(c4ccccc4)(CC2)OO3)cc1 (centres unmarked) [Table 6, R = F] | 42
8 | OCc1ccc(C23CCCC(c4ccccc4)(CC2)OO3)cc1 (centres unmarked) [Table 6, R = CH2 OH] | 81
9 | Fc1ccc(C23C=CC(c4ccccc4)(CC2)OO3)cc1 (centres unmarked) [R = H, R' = F] | 71
10 | C1=CC2(c3ccccc3)CCC1(c1ccccc1)OO2 [n = 2] | 180
11 | Fc1ccc(C23C=CC(c4ccc(F)cc4)(CC2)OO3)cc1 [R = F, R' = F] | 70
12 | Oc1ccc(C23CCCC(c4ccccc4)(CC2)OO3)cc1 (centres unmarked) [Table 6, R = OH] | > 2500
13 | FC(F)(F)c1ccc(C23CCC(c4ccc(C(F)(F)F)cc4)(CC2)OO3)cc1 [Table 5, R = CF3] | 82

These molecules were tested on Plasmodium falciparum (assay: antimalarial activity, tritiated-hypoxanthine incorporation assay in human red blood cells). Settings: Erythrocyte, read-out: IC50 (inhibition of 50% of the replication of Plasmodium falciparum).
Assay type: cell-based
Protocol: as §1
It is particularly noted that JHU 2886 has an excellent therapeutic index (ratio of activity to toxicity). At 1 μM, JHU 2886 has a therapeutic index of 70/0, whereas at the same concentration artimisinin has a therapeutic index of 76/10 (7.6), and atovaquone has a therapeutic index of only 95/17 (5.6). […] The first two compounds are known while the following five are being disclosed for the first time. […] Compounds of this formula wherein Ar is p-FCH2 Ph or p-HOCH2 Ph and X is CH2 are also expected to be particularly useful. […]

Row | SMILES | IC50 [nM]
14 | Fc1ccc(C23CCCC(c4ccc(F)cc4)(CC2)OO3)cc1 [Ar = p-FPh, X = CH2] | 38
15 | C1=CC2(c3ccccc3)CCCC1(c1ccccc1)OO2 | 150
16 | CC1(C)CC2(c3ccccc3)CCC(c3ccccc3)(C1)OO2 [Ar = Ph, X = C(CH3)2] | > 1000
17 | c1ccc(C23CCCC(c4ccccc4)(CC2)OO3)cc1 [Ar = Ph, X = CH2] | 89
18 | C1=CC2(c3ccccc3)CCCCC1(c1ccccc1)OO2 [n = 4] | 410
19 | C1=CC2(c3ccccc3)CCC1(c1ccccc1)OO2 [n = 2] | 150
20 | c1ccc(C23CCC(c4ccccc4)(CC4(CCCCC4)C2)OO3)cc1 [Ar = Ph, X = drawing 40] | > 1000
21 | COc1ccc(C23CCCC(c4ccc(OC)cc4)(CC2)OO3)cc1 [Ar = p-MeOPh, X = CH2] | 62
22 | C1=CC2(c3ccccc3)CC1(c1ccccc1)OO2 [n = 1] | 650
23 | O=S1(=O)CC2(c3ccccc3)CCC(c3ccccc3)(C1)OO2 [Ar = Ph, X = SO2] | > 1000
